Where a SMILES comes first, the peptide text is derived from it. Bridges are numbered along the chain shown (N, C = ends). [ ]: non-standard residue; d: D form. 1Nal = N[C@@H](Cc1cccc2ccccc12)C(=O)O; Nle = CCCC[C@H](N)C(=O)O
Key:
MC3-R [1] = target: T1, MC3-R (Homo sapiens, UniProt P41968); test: Competitive inhibition binding assay using [I125]-NDP-α-MSH, hMC3-R; details: radioligand [I125]-NDP-α-MSH, HEK-293 membranes; read-out: Ki (NDP-α-MSH) MC3-R
T1 construct: expressed in transfected cells; host or cells: HEK-293
Protocol: (§1) The assay tube also contained a chosen concentration of the test peptide of this invention, typically a 1 μM concentration, for determining its efficacy in inhibiting the binding of [I^125]NDP-α-MSH to the receptor.
(§2) The assay mixture was incubated for 60 minutes at 37° C., then filtered and the membranes washed three times with ice cold phosphate buffered saline. The filter was dried and counted in a gamma counter for remaining radioactivity bound to the membranes. 100% specific binding was defined as the difference in radioactivity (cpm) bound to cell membranes in the absence and presence of 1 μM NDP-α-MSH. […] Each assay was conducted in triplicate. The Ki (nM) of certain peptides of the invention were determined using similar assay protocols and testing peptides over a wider dose range.

MC4-R [2] = target: T2, MC4-R (Homo sapiens, UniProt P32245); test: Competitive inhibition binding assay using [I125]-NDP-α-MSH, hMC4-R; details: radioligand [I125]-NDP-α-MSH, HEK-293 membranes; read-out: Ki (NDP-α-MSH) MC4-R
T2 construct: expressed in transfected cells; host or cells: HEK-293
Protocol: as §1, §2

hMC5-R = target: T3, hMC5-R (Homo sapiens, UniProt P33032); test: Competitive inhibition binding assay using [I125]-NDP-α-MSH, hMC5-R; details: radioligand [I125]-NDP-α-MSH, HEK-293 membranes; read-out: Ki (NDP-α-MSH) MC5-R
T3 construct: expressed in transfected cells; host or cells: HEK-293
Protocol: as §1, §2

MC3-R [3] = target: T1, MC3-R; test: Competitive inhibition Ki (AgRP), MC3-R; type: binding; details: AgRP as competing ligand
Protocol: as §2

MC4-R [4] = target: T2, MC4-R; test: Competitive inhibition Ki (AgRP), MC4-R; type: binding; details: AgRP as competing ligand
hMC3-R (HEK-293 cells) = target: T4, hMC3-R (HEK-293 cells) (Homo sapiens, UniProt P41968); test: cAMP functional assay for agonist/antagonist status, MC3-R; type: cell-based; details: for EC50: cAMP accumulation; for agonist/antagonist status as to MC3-R: cAMP assay; for efficacy relative to NDP-α-MSH, MC3-R: cAMP response ratio to NDP-α-MSH
T4 construct: expressed in transfected cells; host or cells: HEK-293
Protocol: (§3) Functional evaluation of peptides at melanocortin receptors was performed by measuring the accumulation of intracellular cAMP in HEK-293 cells expressing hMC3-R, hMC4-R or hMC5-R, and in B-16 mouse melanoma cells expressing MC1-R. Cells suspended in Earle's Balanced Salt Solution containing 10 mM HEPES (pH 7.5), 5 mM MgCl2, 1 mM glutamine, 0.5% albumin and 0.3 mM 3-isobutyl-1-methyl-xanthine, a phosphodiesterase inhibitor, were plated in 96 well plates at a density of 0.5×10^5 cells per well. Cells were incubated with the test peptides in the presence or absence of NDP-α-MSH for 1 hour at 37° C. cAMP levels in the cell lysates were measured using an EIA kit (Amersham). Data analysis and EC50 values were determined using nonlinear regression analysis with Prism Graph-Pad software.
(§4) The agonist/antagonist status with respect to MC1-R, MC4-R and MC5-R of certain peptides of the invention was determined. Antagonistic activity was determined by measuring the inhibition of α-MSH-induced or NDP-α-MSH-induced cAMP levels following exposure to the peptides as in the preceding descriptions.

hMC4-R (HEK-293 cells) = target: T5, hMC4-R (HEK-293 cells) (Homo sapiens, UniProt P32245); test: cAMP functional assay for agonist/antagonist status, MC4-R; type: cell-based; details: for EC50: cAMP accumulation; for agonist/antagonist status as to MC4-R: cAMP assay; for efficacy relative to NDP-α-MSH, MC4-R: cAMP response ratio to NDP-α-MSH
T5 construct: expressed in transfected cells; host or cells: HEK-293
Protocol: as §3, §4
Evaluation of the molecules to elicit a functional response in HEK-293 cells expressing hMC4-R for agonistic activity was done by measuring the accumulation of intracellular cAMP following treatment. Confluent HEK-293 cells over-expressing MC4-R receptors were detached by enzyme free cell suspension buffer. Cells were suspended in Earle's Balanced Salt Solution containing 10 mM HEPES (pH 7.5), 1 mM MgCl2, 1 mM glutamine, 0.5% albumin and 0.3 mM 3-isobutyl-1-methyl-[…]. The cells were plated in a 96 well plate at a density of 0.5×10^5 cells per well and pre-incubated for 60 minutes. The cells were then challenged with the test peptides dissolved in dimethylsulfoxide (DMSO) at a concentration range of 0.05-5000 nM in a total assay volume of 200 μL for 1 hour at 37° C. The concentration of DMSO was held at 1% in the assay mixture. NDP-α-MSH was used as the reference agonist. At the end of the incubation period the cells were disrupted by the addition of 50 μL lysis buffer from the cAMP EIA kit (Amersham). Complete rupture of the cells was ensured by pipetting the cells. cAMP levels in the cell lysates were measured after appropriate dilution using the EIA kit (Amersham) method. Data analysis and EC50 values were determined by using nonlinear regression analysis with the Prism Graph-Pad software.

male Sprague-Dawley rats = test: Penile erection induction in male rats; type: in vivo, rat
Protocol: The ability of peptides to induce penile erection (PE) in male rats was evaluated with selected peptides. Male Sprague-Dawley rats weighing 200-250 g were kept on a 12 hour on/off light cycle with food and water ad libitum. All behavioral studies were performed between 10 a.m. and 5 p.m. Groups of 4-8 rats were administered peptides at a variety of doses via an intravenous (IV) route, and may alternatively be administered peptide by an intracerebroventricular (ICV) route. Immediately after treatment, rats were placed into individual polystyrene cages (27 cm long, 16 cm wide, and 25 cm high) for behavioral observation. […] For rats administered peptide by an ICV routes, rats are observed for two hours.
Selected peptides were tested as in Example 5. Peptide was administered by IV routes, and used at dose levels ranging from 1 μg/kg to 1000 μg/kg.

[5] = target: T6, MC1-R (B-16 mouse melanoma cells) (Mus musculus, UniProt Q01727); test: cAMP functional assay for agonist/antagonist status, MC1-R; type: cell-based; details: for EC50: cAMP accumulation; for agonist/antagonist status as to MC1-R: cAMP assay; for efficacy relative to NDP-α-MSH, MC1-R: cAMP response ratio to NDP-α-MSH
T6 construct: B-16 mouse melanoma cells (containing MC1-R); endogenous in cells; host or cells: B-16 mouse melanoma cells
Protocol: Data analysis and EC50 values were determined using nonlinear regression analysis with Prism Graph-Pad software.
The agonist/antagonist status with respect to MC1-R, MC4-R and MC5-R of certain peptides of the invention was determined.

[6] = 1000 μg/kg IV, groups of 6 rats, one hour observation
[7] = peak dose 300 μg/kg IV, groups of 6 rats

T2 sequence (P32245 whole entry): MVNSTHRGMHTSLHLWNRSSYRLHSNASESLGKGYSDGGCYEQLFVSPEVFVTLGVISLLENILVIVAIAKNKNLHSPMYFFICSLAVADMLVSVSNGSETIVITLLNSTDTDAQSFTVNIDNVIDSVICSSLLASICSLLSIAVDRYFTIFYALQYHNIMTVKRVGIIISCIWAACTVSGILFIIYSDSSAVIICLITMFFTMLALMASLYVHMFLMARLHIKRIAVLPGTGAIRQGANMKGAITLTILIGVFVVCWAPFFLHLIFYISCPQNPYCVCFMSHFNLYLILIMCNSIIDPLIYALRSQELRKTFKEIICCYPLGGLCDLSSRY
T5 sequence (P32245 whole entry): as above
T1 sequence (P41968 whole entry): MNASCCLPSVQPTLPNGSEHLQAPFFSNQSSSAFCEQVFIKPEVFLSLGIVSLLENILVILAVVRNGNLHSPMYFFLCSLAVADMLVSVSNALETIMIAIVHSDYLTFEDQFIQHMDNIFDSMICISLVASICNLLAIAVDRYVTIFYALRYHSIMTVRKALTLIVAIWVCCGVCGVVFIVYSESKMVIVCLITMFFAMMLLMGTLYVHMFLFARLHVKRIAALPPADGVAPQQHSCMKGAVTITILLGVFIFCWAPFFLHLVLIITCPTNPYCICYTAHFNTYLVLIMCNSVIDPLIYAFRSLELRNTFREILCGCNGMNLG
T4 sequence (P41968 whole entry): as above
T6 sequence (Q01727 whole entry): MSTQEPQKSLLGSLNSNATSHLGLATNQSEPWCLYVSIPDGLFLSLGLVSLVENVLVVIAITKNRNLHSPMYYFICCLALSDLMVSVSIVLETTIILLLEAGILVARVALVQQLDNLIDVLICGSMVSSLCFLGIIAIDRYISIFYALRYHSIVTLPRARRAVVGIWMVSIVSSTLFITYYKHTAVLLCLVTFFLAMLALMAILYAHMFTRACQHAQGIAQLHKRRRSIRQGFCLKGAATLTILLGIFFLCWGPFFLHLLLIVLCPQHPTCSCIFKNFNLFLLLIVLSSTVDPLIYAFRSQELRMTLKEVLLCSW
T3 sequence (P33032 whole entry): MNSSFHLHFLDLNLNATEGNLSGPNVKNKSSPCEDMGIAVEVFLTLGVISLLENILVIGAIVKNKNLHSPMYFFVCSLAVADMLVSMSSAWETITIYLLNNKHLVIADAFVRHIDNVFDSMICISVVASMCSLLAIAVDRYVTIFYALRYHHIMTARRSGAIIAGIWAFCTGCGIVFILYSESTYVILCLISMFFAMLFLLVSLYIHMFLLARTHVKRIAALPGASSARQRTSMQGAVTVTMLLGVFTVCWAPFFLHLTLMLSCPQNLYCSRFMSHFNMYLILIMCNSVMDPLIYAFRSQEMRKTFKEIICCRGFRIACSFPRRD

SMILES	Ki (MC3-R [1]) [nM]	Ki (MC4-R [2]) [nM]	Ki (hMC5-R) [nM]	Ki (MC3-R [3]) [nM]	Ki (MC4-R [4]) [nM]	EC50 (hMC3-R (HEK-293 cells)) [nM]	agonist/antagonist status as to MC3-R (hMC3-R (HEK-293 cells))	EC50 (hMC4-R (HEK-293 cells)) [nM]	agonist/antagonist status as to MC4-R (hMC4-R (HEK-293 cells))	rats exhibiting at least one PE (male Sprague-Dawley rats; [6]) [%]	EC50 [5] [nM]	agonist/antagonist status as to MC1-R [5]	efficacy relative to NDP-α-MSH, MC1-R [5]	efficacy relative to NDP-α-MSH, MC3-R (hMC3-R (HEK-293 cells))	efficacy relative to NDP-α-MSH, MC4-R (hMC4-R (HEK-293 cells))	PE effect at 300 μg/kg compared with 1000 μg/kg (male Sprague-Dawley rats; peak dose 300 μg/kg IV)	mean PEs per rat (male Sprague-Dawley rats; [7])	rats exhibiting at least one PE (male Sprague-Dawley rats; [7]) [%]
CCCC[C@H](NC(C)=O)C(=O)N[C@H]1CC(=O)NCCCC[C@@H](C(=O)NCC)NC(=O)[C@H](Cc2c[nH]c3ccccc23)NC(=O)[C@H](CCCNC(=N)N)NC(=O)[C@@H](Cc2ccccc2)NC(=O)[C@H](Cc2c[nH]cn2)NC1=O [Example 7, Ac-Nle-cyclo(-Asp-His-D-Phe-Arg-Trp-Lys)-NH—CH2—CH3]	11	0.34	5	9	0.15	3	agonist (response ratio compared to NDP-α-MSH of 0.7 and above were classified as full agonists)	0.6	agonist (response ratio compared to NDP-α-MSH of 0.7 and above were classified as full agonists)	100	–	–	–	–	–	–	–	–
CCCC[C@H](NC(C)=O)C(=O)N[C@H]1CC(=O)NCCCC[C@@H](C(=O)N(C)C)NC(=O)[C@H](Cc2cccc3ccccc23)NC(=O)[C@H](CCCNC(=N)N)NC(=O)[C@@H](Cc2ccccc2)NC(=O)[C@H](Cc2c[nH]cn2)NC1=O [Example 11, Ac-Nle-cyclo(-Asp-His-D-Phe-Arg-Nal 1-Lys)-N(CH3)2]	–	–	–	> 1000	10	394	agonist (response ratio compared to NDP-α-MSH of 0.7 and above were classified as full agonists)	–	agonist (response ratio compared to NDP-α-MSH of 0.7 and above were classified as full agonists)	100	15	agonist (response ratio compared to NDP-α-MSH of 0.7 and above were classified as full agonists)	0.8	1.1	0.7	the same	–	–
CCCC[C@H](NC(C)=O)C(=O)N[C@H]1CC(=O)NCCCC[C@@H](C(=O)N(C)C)NC(=O)[C@H](Cc2c[nH]c3ccccc23)NC(=O)[C@H](CCCNC(=N)N)NC(=O)[C@@H](Cc2ccccc2)NC(=O)[C@H](Cc2c[nH]cn2)NC1=O [Example 8, Ac-Nle-cyclo(-Asp-His-D-Phe-Arg-Trp-Lys)-N(CH3)2]	8	0.27	7	–	0.5	17	agonist (response ratio compared to NDP-α-MSH of 0.7 and above were classified as full agonists)	0.2	agonist (response ratio compared to NDP-α-MSH of 0.7 and above were classified as full agonists)	100	–	–	–	–	–	–	–	–
CCNC(=O)[C@@H]1CCCCNC(=O)C[C@H](NC(C)=O)C(=O)N[C@@H](Cc2c[nH]cn2)C(=O)N[C@H](Cc2ccccc2)C(=O)N[C@@H](CCCNC(=N)N)C(=O)N[C@@H](Cc2c[nH]c3ccccc23)C(=O)N1 [Example 12, Ac-cyclo(-Asp-His-D-Phe-Arg-Trp-Lys)-NH—CH2—CH3]	–	–	–	457	11	283	agonist (response ratio compared to NDP-α-MSH of 0.7 and above were classified as full agonists)	–	partial agonist (Peptides with a ratio from 0.1 to 0.7 were classified as partial agonists)	–	64	partial agonist (Peptides with a ratio from 0.1 to 0.7 were classified as partial agonists)	0.6	1.0	0.6	–	2.5	83
CCCC[C@H](NC(C)=O)C(=O)N[C@H]1CC(=O)NCCCC[C@@H](C(=O)NCC)NC(=O)[C@H](Cc2cccc3ccccc23)NC(=O)[C@H](CCCNC(=N)N)NC(=O)[C@@H](Cc2ccccc2)NC(=O)[C@H](Cc2c[nH]cn2)NC1=O [Example 9, Ac-Nle-cyclo(-Asp-His-D-Phe-Arg-Nal 1-Lys)-NH—CH2—CH3]	–	–	–	–	7	208	agonist (response ratio compared to NDP-α-MSH of 0.7 and above were classified as full agonists)	–	partial agonist (Peptides with a ratio from 0.1 to 0.7 were classified as partial agonists)	100	8	partial agonist (Peptides with a ratio from 0.1 to 0.7 were classified as partial agonists)	0.6	1.0	0.6	–	–	–
CCCC[C@H](NC(C)=O)C(=O)N[C@H]1CC(=O)NCCCC[C@@H](C(=O)N(C)C)NC(=O)[C@H](Cc2cccc3ccccc23)NC(=O)[C@H](CCCNC(=N)N)NC(=O)[C@@H](Cc2ccccc2)NC(=O)[C@H](Cc2c[nH]c3ccccc23)NC1=O [Example 10, Ac-Nle-cyclo(-Asp-Trp-D-Phe-Arg-Nal 1-Lys)-N(CH3)2] (Ac-[Nle]DW[dF]R[1Nal]K-NMe2; lactam 2-7 (inferred))	–	–	–	> 1000	50	–	inactive	–	agonist (response ratio compared to NDP-α-MSH of 0.7 and above were classified as full agonists)	–	2300	agonist (response ratio compared to NDP-α-MSH of 0.7 and above were classified as full agonists)	1.1	–	0.8	–	–	–

Source: US8247530B2, “N-alkylated cyclic peptide melanocortin agonists” (Palatin Technologies, Inc., priority 2005, dated 2012)
